Source: PubChem BioAssay (NCI)
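Test compounds were applied to cells in 96-well plates for 48 hours at 5 doses. GI50: concentration for 50% inhibition of growth. The concentration for full growth arrest is given as TGI.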

What was measured:
Assay in all cases: NCI tumour cell line growth inhibition, 48 h; in the data active means GI50 below about 0.43 µM; inactive means the rest
A549 NSCLC = system: A549 NSCLC
ACHN renal = system: ACHN renal
CAKI-1 renal = system: CAKI-1 renal
CCRF-CEM leukemia = system: CCRF-CEM leukemia
DLD-1 colon = system: DLD-1 colon
DMS 114 small cell lung = system: DMS 114 small cell lung
DMS 273 small cell lung = system: DMS 273 small cell lung
EKVX NSCLC = system: EKVX NSCLC
HCC-2998 colon = system: HCC-2998 colon
HCT-116 colon = system: HCT-116 colon
HCT-15 colon = system: HCT-15 colon
HL-60(TB) leukemia = system: HL-60(TB) leukemia
HOP-18 NSCLC = system: HOP-18 NSCLC
HOP-62 NSCLC = system: HOP-62 NSCLC
HT29 colon = system: HT29 colon
IGROV1 ovarian = system: IGROV1 ovarian
K-562 leukemia = system: K-562 leukemia
KM20L2 colon = system: KM20L2 colon
LOX IMVI melanoma = system: LOX IMVI melanoma
LXFL 529 NSCLC = system: LXFL 529 NSCLC
M14 melanoma = system: M14 melanoma
M19-MEL melanoma = system: M19-MEL melanoma
MALME-3M melanoma = system: MALME-3M melanoma
MOLT-4 leukemia = system: MOLT-4 leukemia
NCI-H226 lung = system: NCI-H226 lung
NCI-H23 lung = system: NCI-H23 lung
NCI-H460 lung = system: NCI-H460 lung
NCI-H522 lung = system: NCI-H522 lung
OVCAR-3 ovarian = system: OVCAR-3 ovarian
OVCAR-4 ovarian = system: OVCAR-4 ovarian
OVCAR-5 ovarian = system: OVCAR-5 ovarian
OVCAR-8 ovarian = system: OVCAR-8 ovarian
RPMI-8226 leukemia = system: RPMI-8226 leukemia
RXF 393 renal = system: RXF 393 renal
RXF-631 renal = system: RXF-631 renal
SF-268 CNS = system: SF-268 CNS
SF-295 CNS = system: SF-295 CNS
SF-539 CNS = system: SF-539 CNS
SK-MEL-2 melanoma = system: SK-MEL-2 melanoma
SK-MEL-5 melanoma = system: SK-MEL-5 melanoma
SK-OV-3 ovarian = system: SK-OV-3 ovarian
SN12C renal = system: SN12C renal
SNB-19 CNS = system: SNB-19 CNS
SNB-75 CNS = system: SNB-75 CNS
SNB-78 CNS = system: SNB-78 CNS
SR leukemia = system: SR leukemia
SW-620 colon = system: SW-620 colon
TK-10 renal = system: TK-10 renal
U251 CNS = system: U251 CNS
UACC-257 melanoma = system: UACC-257 melanoma
UACC-62 melanoma = system: UACC-62 melanoma
UO-31 renal = system: UO-31 renal
786-0 renal = system: 786-0 renal
A498 renal = system: A498 renal
COLO 205 colon = system: COLO 205 colon
KM12 colon = system: KM12 colon
SK-MEL-28 melanoma = system: SK-MEL-28 melanoma
XF 498 CNS = system: XF 498 CNS
HOP-92 NSCLC = system: HOP-92 NSCLC
MCF7 breast = system: MCF7 breast
NCI/ADR-RES ovarian = system: NCI/ADR-RES ovarian
P388 leukemia = system: P388 leukemia
P388/ADR leukemia = system: P388/ADR leukemia
SN12K1 renal = system: SN12K1 renal

CCC12CCC[C@@]13C=C[C@H](O3)C(C)(C)C2=O (stereo partly specified)
> 100 µM: TGI (A549 NSCLC) | TGI (ACHN renal) | TGI (CAKI-1 renal) | TGI (CCRF-CEM leukemia) | TGI (DLD-1 colon) | TGI (DMS 114 small cell lung) | TGI (DMS 273 small cell lung) | TGI (EKVX NSCLC) | TGI (HCC-2998 colon) | TGI (HCT-116 colon) | TGI (HCT-15 colon) | TGI (HL-60(TB) leukemia) | TGI (HOP-18 NSCLC) | TGI (HOP-62 NSCLC) | TGI (HT29 colon) | TGI (IGROV1 ovarian) | TGI (K-562 leukemia) | TGI (KM20L2 colon) | TGI (LOX IMVI melanoma) | TGI (LXFL 529 NSCLC) | TGI (M14 melanoma) | TGI (M19-MEL melanoma) | TGI (MALME-3M melanoma) | TGI (MOLT-4 leukemia) | TGI (NCI-H226 lung) | TGI (NCI-H23 lung) | TGI (NCI-H460 lung) | TGI (NCI-H522 lung) | TGI (OVCAR-3 ovarian) | TGI (OVCAR-4 ovarian) | TGI (OVCAR-5 ovarian) | TGI (OVCAR-8 ovarian) | TGI (RPMI-8226 leukemia) | TGI (RXF 393 renal) | TGI (RXF-631 renal) | TGI (SF-268 CNS) | TGI (SF-295 CNS) | TGI (SF-539 CNS) | TGI (SK-MEL-2 melanoma) | TGI (SK-MEL-5 melanoma) | TGI (SK-OV-3 ovarian) | TGI (SN12C renal) | TGI (SNB-19 CNS) | TGI (SNB-75 CNS) | TGI (SNB-78 CNS) | TGI (SR leukemia) | TGI (SW-620 colon) | TGI (TK-10 renal) | TGI (U251 CNS) | TGI (UACC-257 melanoma) | TGI (UACC-62 melanoma) | TGI (UO-31 renal)

CC1CCCP(=O)(c2ccccc2)CCC1 (stereo unspecified)
96.4 µM: TGI (HOP-18 NSCLC)
> 100 µM: TGI (786-0 renal) | TGI (A498 renal) | TGI (A549 NSCLC) | TGI (ACHN renal) | TGI (CAKI-1 renal) | TGI (CCRF-CEM leukemia) | TGI (COLO 205 colon) | TGI (DLD-1 colon) | TGI (DMS 114 small cell lung) | TGI (DMS 273 small cell lung) | TGI (EKVX NSCLC) | TGI (HCC-2998 colon) | TGI (HCT-15 colon) | TGI (HL-60(TB) leukemia) | TGI (HOP-62 NSCLC) | TGI (HT29 colon) | TGI (IGROV1 ovarian) | TGI (K-562 leukemia) | TGI (KM12 colon) | TGI (KM20L2 colon) | TGI (LOX IMVI melanoma) | TGI (LXFL 529 NSCLC) | TGI (M14 melanoma) | TGI (M19-MEL melanoma) | TGI (MALME-3M melanoma) | TGI (MOLT-4 leukemia) | TGI (NCI-H23 lung) | TGI (NCI-H460 lung) | TGI (OVCAR-3 ovarian) | TGI (OVCAR-4 ovarian) | TGI (OVCAR-5 ovarian) | TGI (OVCAR-8 ovarian) | TGI (RPMI-8226 leukemia) | TGI (RXF 393 renal) | TGI (RXF-631 renal) | TGI (SF-268 CNS) | TGI (SF-295 CNS) | TGI (SF-539 CNS) | TGI (SK-MEL-2 melanoma) | TGI (SK-MEL-28 melanoma) | TGI (SK-MEL-5 melanoma) | TGI (SK-OV-3 ovarian) | TGI (SN12C renal) | TGI (SNB-19 CNS) | TGI (SNB-75 CNS) | TGI (SNB-78 CNS) | TGI (SW-620 colon) | TGI (TK-10 renal) | TGI (U251 CNS) | TGI (UACC-257 melanoma) | TGI (UACC-62 melanoma) | TGI (UO-31 renal) | TGI (XF 498 CNS)

[C-]#[O+].[Cl][Sn]([Cl])[Cl].[Cl][Sn]([Cl])[Cl].[Pt].c1cnc2c(c1)ccc1cccnc12
35.7 µM: TGI (IGROV1 ovarian)
> 79 µM: TGI (SF-268 CNS)
> 48.3 µM: TGI (K-562 leukemia)
13.3 µM: TGI (A498 renal)
23.5 µM: TGI (NCI-H460 lung)
> 27.4 µM: TGI (OVCAR-4 ovarian)
27.8 µM: TGI (SK-OV-3 ovarian)
10.1 µM: TGI (NCI/ADR-RES ovarian)
> 24.6 µM: TGI (HCT-116 colon)
5.1 µM: TGI (P388/ADR leukemia)
5.68 µM: TGI (P388 leukemia)
56.4 µM: TGI (MCF7 breast)
> 31.6 µM: TGI (M19-MEL melanoma)
16.6 µM: TGI (SF-539 CNS)
6 µM: TGI (DMS 273 small cell lung)
> 42.4 µM: TGI (NCI-H226 lung)
46.9 µM: TGI (SK-MEL-28 melanoma)
> 69.8 µM: TGI (OVCAR-3 ovarian)
> 61.2 µM: TGI (SN12C renal)
4.54 µM: TGI (KM20L2 colon)
> 44 µM: TGI (HCT-15 colon)
> 65.8 µM: TGI (RPMI-8226 leukemia)
13.1 µM: TGI (HCC-2998 colon)
> 33.8 µM: TGI (UO-31 renal)
44.4 µM: TGI (EKVX NSCLC)
13.4 µM: TGI (SK-MEL-5 melanoma)
> 22.4 µM: TGI (UACC-62 melanoma)
51.5 µM: TGI (HOP-92 NSCLC)
> 27.1 µM: TGI (SNB-19 CNS)
44.3 µM: TGI (XF 498 CNS)
7.95 µM: TGI (HL-60(TB) leukemia)
15 µM: TGI (U251 CNS)
> 59.5 µM: TGI (OVCAR-5 ovarian)
66 µM: TGI (SNB-78 CNS)
18.6 µM: TGI (SK-MEL-2 melanoma)
61.6 µM: TGI (SNB-75 CNS)
15.8 µM: TGI (LOX IMVI melanoma)
> 39.4 µM: TGI (DMS 114 small cell lung)
16.7 µM: TGI (SN12K1 renal)
> 29.8 µM: TGI (CCRF-CEM leukemia)
> 36.5 µM: TGI (SF-295 CNS)
> 30.9 µM: TGI (MOLT-4 leukemia)
> 100 µM: TGI (A549 NSCLC) | TGI (CAKI-1 renal) | TGI (COLO 205 colon) | TGI (HOP-18 NSCLC) | TGI (HT29 colon) | TGI (KM12 colon) | TGI (MALME-3M melanoma) | TGI (NCI-H23 lung) | TGI (NCI-H522 lung) | TGI (OVCAR-8 ovarian) | TGI (SW-620 colon) | TGI (UACC-257 melanoma)
45.3 µM: TGI (HOP-62 NSCLC)
inactive: GI50 (DMS 114 small cell lung) 4.14 µM | GI50 (DMS 273 small cell lung) 2.59 µM | GI50 (HOP-18 NSCLC) 6.73 µM | GI50 (KM20L2 colon) 1.97 µM | GI50 (M19-MEL melanoma) 3.25 µM | GI50 (P388 leukemia) 2.12 µM | GI50 (P388/ADR leukemia) 1.78 µM | GI50 (SN12K1 renal) 3.37 µM | GI50 (SNB-78 CNS) 15.8 µM | GI50 (XF 498 CNS) 9.1 µM
